“And” between values parts separate entries of the source, which are not always exact repeats. Equal entries are not always repeated.
Test system: CAIX-expressing SK-RC-52 tumors
Assay: Biodistribution in mice bearing SK-RC-52 xenografts
Type: in vivo
Conditions: for Biodistribution Bladder / Biodistribution Blood / Biodistribution Brain / Biodistribution Fat / Biodistribution Heart / Biodistribution Kidney / Biodistribution Liver / Biodistribution Lung / Biodistribution Muscle / Biodistribution Pancreas / Biodistribution Small intestine / Biodistribution Spleen / Biodistribution Stomach / Biodistribution Tumor / Tumor/Kidney ratio / Tumor/Blood ratio / Tumor/Muscle ratio: 740 kBq i.v.
Protocol: Animal experiments were performed in accordance with protocols approved by the Johns Hopkins Animal Care and Use Committee (ACUC). Six-week-old female NOD/SCID mice were purchased from the Animal Resource Core of the Sidney Kimmel Comprehensive Cancer Center of Johns Hopkins and were subcutaneously injected in the lower left flank or upper right flank with 1×10^6 SK-RC-52 cells in RPMI 1640 GlutaMAX™ media (Life Technologies, Frederick, Md.) supplemented with 1% fetal bovine serum (FBS). Mice were monitored for tumor size and used for SPECT/CT imaging when the size of the tumor reached 100 mm^3.
Mice bearing SK-RC-52 xenografts at lower left flank were injected intravenously with 740 kBq (20 μCi) of [^111In]XYIMSR-01, or [^177Lu]XYIMSR-01 in 200 μL of PBS. For competitive blocking, same tumor bearing mice were injected with 740 kBq (20 μCi) of [^111In]XYIMSR-01 and 200 nmole of 8 in 200 μL of PBS. At 1 h, 4 h, 8 h, 24 h and 48 h post-injection, mice were sacrificed by cervical dislocation and the blood was immediately collected by cardiac puncture. Heart, lungs, pancreas, spleen, fat, brain, muscle, small intestines, liver, stomach, kidney, urinary bladder, and tumor were collected. Each organ was weighed and the tissue radioactivity was measured with an automated gamma counter (1282 Compugamma CS, Pharmacia/LKBNuclear, Inc., Mt. Waverly, Vic. Australia). The percentage of injected dose per gram of tissue (% ID/g) was calculated by comparison with samples of a standard dilution of the initial dose. All measurements were corrected for radioactive decay.
Data were expressed as mean±standard deviation (SD). Prism software (GraphPAD, San Diego, Calif.) was used to determine statistical significance. Statistical significance was calculated using a paired t test. P-values <0.0001 were considered significant.
Mice bearing SK-RC-52 xenografts within the lower left flank were injected intravenously with 740 kBq (20 μCi) of [Al^18F]XYIMSR-04 in 200 μL of PBS. At specific 1 hour time point mentioned in the paper, mice (n=5) were sacrificed by cervical dislocation and the blood was immediately collected by cardiac puncture. Heart, lungs, pancreas, spleen, fat, brain, muscle, small intestines, liver, bone, stomach, kidney, urinary bladder, and tumor were collected. Each organ was weighed and the tissue radioactivity was measured with an automated gamma counter (1282 Compugamma CS, Pharmacia/LKBNuclear, Inc., Mt. Waverly, Vic. Australia). The percentage of injected dose per gram of tissue (% ID/g) was calculated by comparison with samples of a standard dilution of the initial dose. All measurements were corrected for radioactive decay. Data were expressed as mean±standard deviation (SD). Prism software (GraphPAD, San Diego, Calif.) was used to determine statistical significance. Statistical significance was calculated using a paired t test. P-values <0.0001 were considered significant.
Mice bearing SK-RC-52 xenografts within the upper right flank were injected intravenously with 740 kBq (20 μCi) of [^64Cu]XYIMSR-06 in 200 μL of PBS. For in vivo competition (binding specificity) studies, tumor-bearing mice were injected with 740 kBq (20 μCi) of [^64Cu]XYIMSR-06 and 200 nmole of 8 in 200 μL of PBS concurrently. At specific times after injection (1 h, 4 h, 8 h and 24 h), mice (n=5) were sacrificed by cervical dislocation with blood immediately collected by cardiac puncture. Heart, lungs, pancreas, spleen, fat, brain, muscle, small intestines, liver, stomach, kidney, urinary bladder, and tumor were also collected. Each organ was weighed and the tissue radioactivity was measured with an automated gamma counter (1282 Compugamma CS, Pharmacia/LKBNuclear, Inc., Mt. Waverly, Vic. Australia). The percentage of injected dose per gram of tissue (% ID/g) was calculated by comparison with samples of a standard dilution of the initial dose. All measurements were corrected for radioactive decay. Data were expressed as mean±standard deviation (SD). […]

`CC(CCC(=O)N[C@@H](CC(=O)N[C@@H](CC(=O)N[C@@H](CCCCn1cc(CCCC(=O)Nc2nnc(S(N)(=O)=O)s2)nn1)C(=O)NCCOCCOCCNC(=O)CN1CCN(CC(=O)[O-])CCN(CC(=O)[O-])CCN(CC(=O)[O-])CC1)C(=O)O)C(=O)O)(c1ccc(O)cc1)c1ccc(O)cc1.[111In+3]` [[^111In]XYIMSR-01] was tested, and the “Biodistribution Bladder” value (1 h post-injection) was 4.90 % ID/g, the “Biodistribution Blood” value (1 h post-injection) was 1.34 % ID/g and the “Biodistribution Brain” value (1 h post-injection) was 1.23 % ID/g. The “Biodistribution Fat” value (1 h post-injection) was 1.03 % ID/g, the “Biodistribution Heart” value (1 h post-injection) was 5.98 % ID/g and the “Biodistribution Kidney” value (1 h post-injection) was 71.26 % ID/g. The “Biodistribution Liver” value (1 h post-injection) was 8.36 % ID/g, the “Biodistribution Lung” value (1 h post-injection) was 45.85 % ID/g and the “Biodistribution Muscle” value (1 h post-injection) was 2.34 % ID/g. For the same molecule, the “Biodistribution Pancreas” value (1 h post-injection) was 3.81 % ID/g, the “Biodistribution Small intestine” value (1 h post-injection) was 9.37 % ID/g and the “Biodistribution Spleen” value (1 h post-injection) was 0.52 % ID/g. The “Biodistribution Stomach” value (1 h post-injection) was 16.71 % ID/g, the “Biodistribution Tumor” value (1 h post-injection) was 26 % ID/g and 26.01 % ID/g and the Tumor/Kidney ratio (1 h post-injection) was 0.36. The “Biodistribution Bladder” value (4 h post-injection) was 2.68 % ID/g, the “Biodistribution Blood” value (4 h post-injection) was 0.65 % ID/g and the “Biodistribution Brain” value (4 h post-injection) was 0.45 % ID/g. For the same molecule, the “Biodistribution Fat” value (4 h post-injection) was 0.42 % ID/g, the “Biodistribution Heart” value (4 h post-injection) was 2.91 % ID/g and the “Biodistribution Kidney” value (4 h post-injection) was 41.52 % ID/g. For the same molecule, the “Biodistribution Liver” value (4 h post-injection) was 4.00 % ID/g, the “Biodistribution Lung” value (4 h post-injection) was 17.85 % ID/g and the “Biodistribution Muscle” value (4 h post-injection) was 1.01 % ID/g. The “Biodistribution Pancreas” value (4 h post-injection) was 1.54 % ID/g, the “Biodistribution Small intestine” value (4 h post-injection) was 4.27 % ID/g and the “Biodistribution Spleen” value (4 h post-injection) was 0.51 % ID/g. For the same molecule, the “Biodistribution Stomach” value (4 h post-injection) was 7.91 % ID/g, the “Biodistribution Tumor” value (4 h post-injection) was 20.83 % ID/g and the Tumor/Blood ratio (4 h post-injection) was 31.9. The Tumor/Kidney ratio (4 h post-injection) was 0.50, the Tumor/Muscle ratio (4 h post-injection) was 21.4 and the “Biodistribution Bladder” value (8 h post-injection) was 2.28 % ID/g. For the same molecule, the “Biodistribution Blood” value (8 h post-injection) was 0.48 % ID/g, the “Biodistribution Brain” value (8 h post-injection) was 0.59 % ID/g and the “Biodistribution Fat” value (8 h post-injection) was 0.45 % ID/g. The “Biodistribution Heart” value (8 h post-injection) was 2.61 % ID/g, the “Biodistribution Kidney” value (8 h post-injection) was 28.79 % ID/g and the “Biodistribution Liver” value (8 h post-injection) was 3.65 % ID/g. The “Biodistribution Lung” value (8 h post-injection) was 17.39 % ID/g, the “Biodistribution Muscle” value (8 h post-injection) was 1.09 % ID/g and the “Biodistribution Pancreas” value (8 h post-injection) was 1.61 % ID/g. The “Biodistribution Small intestine” value (8 h post-injection) was 4.31 % ID/g, the “Biodistribution Spleen” value (8 h post-injection) was 0.64 % ID/g and the “Biodistribution Stomach” value (8 h post-injection) was 8.74 % ID/g. The “Biodistribution Tumor” value (8 h post-injection) was 34.0 % ID/g, the Tumor/Blood ratio (8 h post-injection) was 77.0 and the Tumor/Kidney ratio (8 h post-injection) was 3.1. For the same molecule, the Tumor/Muscle ratio (8 h post-injection) was 34.2, the “All other tumor/organ ratios” value (24 h) was ≥ 10 and the “Biodistribution Bladder” value (24 h + block (200 nmole of 8)) was 0.20 % ID/g. The “Biodistribution Blood” value (24 h + block (200 nmole of 8)) was 0.03 % ID/g, the “Biodistribution Brain” value (24 h + block (200 nmole of 8)) was 0.03 % ID/g and the “Biodistribution Fat” value (24 h + block (200 nmole of 8)) was 0.02 % ID/g. The “Biodistribution Heart” value (24 h + block (200 nmole of 8)) was 0.04 % ID/g, the “Biodistribution Kidney” value (24 h + block (200 nmole of 8)) was 0.68 % ID/g and the “Biodistribution Liver” value (24 h + block (200 nmole of 8)) was 0.10 % ID/g. The “Biodistribution Lung” value (24 h + block (200 nmole of 8)) was 0.12 % ID/g, the “Biodistribution Muscle” value (24 h + block (200 nmole of 8)) was 0.02 % ID/g and the “Biodistribution Pancreas” value (24 h + block (200 nmole of 8)) was 0.03 % ID/g. For the same molecule, the “Biodistribution Small intestine” value (24 h + block (200 nmole of 8)) was 0.08 % ID/g, the “Biodistribution Spleen” value (24 h + block (200 nmole of 8)) was 0.08 % ID/g and the “Biodistribution Stomach” value (24 h + block (200 nmole of 8)) was 0.14 % ID/g. For the same molecule, the “Biodistribution Tumor” value (24 h + block (200 nmole of 8)) was 1.41 % ID/g, the Tumor/Blood ratio (24 h + block (200 nmole of 8)) was 45.2 and the Tumor/Kidney ratio (24 h + block (200 nmole of 8)) was 2.1. The Tumor/Muscle ratio (24 h + block (200 nmole of 8)) was 91.4, the “Uptake to tumors with simultaneously injected non-radioactive competitor 8” value (24 h and 48 h post injection) was ~1% and the “Biodistribution Bladder” value (24 h post-injection) was 0.74 % ID/g. The “Biodistribution Blood” value (24 h post-injection) was 0.15 % ID/g, the “Biodistribution Brain” value (24 h post-injection) was 0.71 % ID/g and the “Biodistribution Fat” value (24 h post-injection) was 0.28 % ID/g. For the same molecule, the “Biodistribution Heart” value (24 h post-injection) was 1.16 % ID/g, the “Biodistribution Kidney” value (24 h post-injection) was 15.29 % ID/g and the “Biodistribution Liver” value (24 h post-injection) was 3.02 % ID/g. The “Biodistribution Lung” value (24 h post-injection) was 11.01 % ID/g, the “Biodistribution Muscle” value (24 h post-injection) was 0.35 % ID/g and the “Biodistribution Pancreas” value (24 h post-injection) was 0.69 % ID/g. For the same molecule, the “Biodistribution Small intestine” value (24 h post-injection) was 2.11 % ID/g, the “Biodistribution Spleen” value (24 h post-injection) was 0.69 % ID/g and the “Biodistribution Stomach” value (24 h post-injection) was 3.31 % ID/g. The “Biodistribution Tumor” value (24 h post-injection) was 25.62 % ID/g, the “Biodistribution Bladder” value (48 h + block (200 nmole of 8)) was 0.14 % ID/g and the “Biodistribution Blood” value (48 h + block (200 nmole of 8)) was 0.03 % ID/g. For the same molecule, the “Biodistribution Brain” value (48 h + block (200 nmole of 8)) was 0.03 % ID/g, the “Biodistribution Fat” value (48 h + block (200 nmole of 8)) was 0.03 % ID/g and the “Biodistribution Heart” value (48 h + block (200 nmole of 8)) was 0.04 % ID/g. For the same molecule, the “Biodistribution Kidney” value (48 h + block (200 nmole of 8)) was 0.45 % ID/g, the “Biodistribution Liver” value (48 h + block (200 nmole of 8)) was 0.13 % ID/g and the “Biodistribution Lung” value (48 h + block (200 nmole of 8)) was 0.09 % ID/g. For the same molecule, the “Biodistribution Muscle” value (48 h + block (200 nmole of 8)) was 0.02 % ID/g, the “Biodistribution Pancreas” value (48 h + block (200 nmole of 8)) was 0.03 % ID/g and the “Biodistribution Small intestine” value (48 h + block (200 nmole of 8)) was 0.08 % ID/g. The “Biodistribution Spleen” value (48 h + block (200 nmole of 8)) was 0.11 % ID/g, the “Biodistribution Stomach” value (48 h + block (200 nmole of 8)) was 0.14 % ID/g and the “Biodistribution Tumor” value (48 h + block (200 nmole of 8)) was 1.22 % ID/g. It also gave a Tumor/Blood ratio (48 h + block (200 nmole of 8)) of 45.4, a Tumor/Kidney ratio (48 h + block (200 nmole of 8)) of 2.7 and a Tumor/Muscle ratio (48 h + block (200 nmole of 8)) of 75.1. The “Biodistribution Bladder” value (48 h post-injection) was 0.38 % ID/g, the “Biodistribution Blood” value (48 h post-injection) was 0.06 % ID/g and the “Biodistribution Brain” value (48 h post-injection) was 0.41 % ID/g. For the same molecule, the “Biodistribution Fat” value (48 h post-injection) was 0.25 % ID/g, the “Biodistribution Heart” value (48 h post-injection) was 0.84 % ID/g and the “Biodistribution Kidney” value (48 h post-injection) was 8.78 % ID/g. For the same molecule, the “Biodistribution Liver” value (48 h post-injection) was 1.65 % ID/g, the “Biodistribution Lung” value (48 h post-injection) was 9.22 % ID/g and the “Biodistribution Muscle” value (48 h post-injection) was 0.39 % ID/g. The “Biodistribution Pancreas” value (48 h post-injection) was 0.59 % ID/g, the “Biodistribution Small intestine” value (48 h post-injection) was 1.22 % ID/g and the “Biodistribution Spleen” value (48 h post-injection) was 0.67 % ID/g. The “Biodistribution Stomach” value (48 h post-injection) was 1.82 % ID/g, the “Biodistribution Tumor” value (48 h post-injection) was 13.92 % ID/g and the Tumor/Blood ratio (48 h post-injection) was 212.0. It also gave a Tumor/Kidney ratio (48 h post-injection) of 1.5 and a Tumor/Muscle ratio (48 h post-injection) of 52.0.
